Measured values: patent US6733779B2, “Method of treating benign prostatic hyperplasia and other benign prostate conditions” (priority 1999, dated 2004)

Key:
[1] = test system: prostate specific antigen (PSA); test: Blood PSA level of patients treated orally with Accutane; format: in vivo, human
[2] = test system: benign prostatic hyperplasia; test: Clinical treatment of patients with benign prostatic hyperplasia / benign prostate conditions: symptoms and prostate size; format: in vivo, human
[3] = Side effects observed in the treated patients (informal trials)
Procedure: The treatment method involves essentially two periods: an initial treatment, and a sustaining treatment. First, in the initial treatment the patients orally administrate an initial dosage about 40 mg of 13-cis-retinoic acid daily for a period from about ten days to about twenty days. Thereafter, the patients orally administrate a sustaining dosage about 40 mg of 13-cis-retinoic acid about every five to seven days in a sustaining period. Typically, the sustaining period is about one year. However, it can be extended longer if extended maintenance is needed.
In the initial treatment, 40 mg of 13-cis-retinoic acid can be administrated in a single dose, or divided doses. […] The patients can either take one 40 mg capsule, or take two 20 mg capsules daily. The same applies to the dosage in the sustaining treatment. For convenience, the patients can take one 40 mg dose every five to seven days.
The initial dosage of about 40 mg 13-cis-retinoic acid daily is determined based on average men's body weight of about 160 lbs, i.e. at about 0.25 mg/lb of body weight. For patients who weigh substantially above or less than the average body weight, the dosage described above can be adjusted accordingly. The same principle applies to the sustaining dosage.

[4] = patients of the informal trials

Question: With `CC1=C(/C=C/C(C)=C/C=C/C(C)=C\C(=O)O)C(C)(C)CCC1` [Accutane, 13-cis retinoic acid] as the compound, how does the PSA after treatment ([1]; Example 1 patient, PSA 4 before, 40 mg orally for 14 days, then 40 mg every 5 days for about one year) read?
Answer: Its PSA after treatment is “less than one”.

Question: And the PSA after treatment ([1]; Example 2 patient, PSA 3 before, after 6 months, 40 mg for 14 days, then 40 mg every 5 days)?
Answer: Its PSA after treatment is “less than one”.

Question: And the PSA after treatment ([1]; Example 3 patient, chronic posttraumatic prostatitis, PSA 5 before, 40 mg daily for 14 days, then 40 mg every 5 days)?
Answer: The PSA after treatment was “less than 1”.

Question: And the PSA after treatment ([1]; Example 4 patient, PSA 4 before, within 6 months, 40 mg per day for 14 days, then 40 mg every 5 days)?
Answer: Its PSA after treatment is “less than 1”.

Question: And the symptoms ([2]; Example 1 patient, prostatic enlargement and attenuated urine stream, 40 mg for 14 days, then 40 mg every 5 days)?
Answer: Its symptoms is “improved steadily”.

Question: What about the “palpable size of prostate” value ([2]; Example 1 patient, 40 mg for 14 days, then 40 mg every 5 days) of the same compound?
Answer: The value was “decreased in palpable size”.

Question: What about the symptoms ([2]; Example 2 patient, prostatic enlargement, decreasing urine flow, urgency, nocturia) of the same compound?
Answer: Its symptoms is “steady improvement in symptoms”.

Question: And the symptoms ([2]; Example 3 patient, chronic prostatitis, after the initial treatment, remained so during the sustaining period)?
Answer: Its symptoms is “rapidly became symptom free”.

Question: What about the symptoms ([2]; Example 4 patient, enlarged prostate, urinary tenesmus) of the same compound?
Answer: The symptoms was “readily improved”.

Question: What about the prostate enlargement ([2]; approximately twelve patients, by examination and the patients' own anecdotal comments) of the same compound?
Answer: The prostate enlargement was “a reduction in prostate enlargement was confirmed”.

Question: And the “worsening of condition (PSA or hyperplasia), progression to malignancy” value [2, 4]?
Answer: Its value is “none of the conditions of these patients worsened”.

Question: What about the blood chemistries ([3]; Example 1 patient, on sustaining dosage of 40 mg every 5 days) of the same compound?
Answer: The blood chemistries was “remained normal”.

Question: And the adverse side effects ([3]; Example 1 patient, soreness subsided slowly after the sustaining dose was instituted)?
Answer: Its adverse side effects is “drying of lips and some musculo-skeletal soreness at sites of old injuries to the fingers and neck”.

Question: What about the adverse side effects ([3]; Example 2 patient) of the same compound?
Answer: The adverse side effects was “No adverse side effects were observed”.

Question: And the “serious adverse side effects or contra-indications” value [3, 4]?
Answer: Its value is “no serious adverse side effects or contra-indications of any kind were observed”.
